Columns and labels:
D16-FAM·R16 = assay: anisotropy time-course of D16-FAM·R16 binding, annealing and release; assay type: biochemical; settings: 50 nM D16-FAM, 50 nM Hfq hexamer, then 50 nM R16, TNK buffer, 30 °C, three trials
Description: (§1) Figure 4. Shortening the CTD increases auto-inhibition by acidic residues. (A) Observed annealing rate constants for 100 nM target RNA and 50 nM molecular beacon with 0–200 nM Hfq hexamer at 30°C, measured by stopped-flow fluorescence. Black, Hfq102; red, Hfq-sCTD; cyan, Hfq65. (B) Fluorescence anisotropy assay for RNA binding and release. In stopped-flow FRET experiments, the dsRNA is released after pairing with its complementary strand ([Panja et al., 2013]; [Santiago-Frangos et al., 2016]). […] Remaining RNA was displaced from Hfq by excess ssDNA (400 nM DNA2). The averages and standard deviations for three trials are plotted for each Hfq variant. […] (D) Annealing of 5 nM ^32P-ChiX sRNA with 30 nM chiP mRNA without Hfq, or with Hfq65, Hfq102 or Hfq-sCTD, as indicated above each lane. Samples were loaded on a native polyacrylamide gel 60 min or 20 s after the components were mixed. […] (E) Fractions of free ChiX (black), ChiX·chiP dsRNA (light grey), ChiX·Hfq·chiP ternary complex (hatched) and ChiX·Hfq binary complex (dark grey) after 4 min of annealing, as analyzed by EMSA (Figure 4—figure supplement 2). […] Annealing of 100 nM Target RNA to 50 nM beacon RNA by Hfq variants was measured by stopped flow fluorescence at 30°C in 1 × TNK buffer. […] The change in fluorescence emission intensity was normalized to the maximum fluorescence within an experiment. […]

Target and Target-U6 RNA = assay: RNA annealing kinetics (molecular beacon with Target and Target-U6), stopped-flow fluorescence; assay type: biochemical; settings: 16 nt Target and Target-U6 RNA; 30 °C
Description: as §1

Target-A18 = assay: RNA annealing kinetics (molecular beacon with Target-A18), stopped-flow fluorescence; assay type: biochemical; settings: 50 nM molecular beacon, 100 nM Target-A18, 0–200 nM Hfq hexamer, 30 °C
Description: as §1

Hfq65 = Hfq65 (Escherichia coli, UniProt P0A6X3); settings: dsRNA product (D16-FAM·R16) versus ssRNA substrate (D16-FAM)
Chain of Hfq65 (P0A6X3 1-65): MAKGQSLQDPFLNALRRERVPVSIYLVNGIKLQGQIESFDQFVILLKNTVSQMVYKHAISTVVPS
Description: Annealing kinetics of molecular beacon (50 nM) to either Target or Target-A18 RNA (100 nM) by 0–200 nM Hfq hexamer, in 1X TNK (10 mM Tris·HCl pH 7.5, 50 mM NaCl, 50 mM KCl) buffer at 30°C was measured by stopped-flow fluorescence spectroscopy as described previously ([Soper et al., 2011]; [Panja and Woodson, 2012b]). Annealing progress curves were fit to single or double-exponential rate equations.

Hfq102 = assay: RNA binding to Hfq102, fluorescence anisotropy; parameters: species or system E. coli; settings: dsRNA product (D16-FAM·R16) versus ssRNA substrate (D16-FAM)

Row | Substance | release of annealed dsRNA (D16-FAM·R16) from Hfq (D16-FAM·R16) | annealing rate of Hfq65 relative to Hfq102 (Target and Target-U6 RNA) | annealing acceleration for Target-A18 compared to no Hfq (Target-A18) | Krel = Kd(P)/Kd(S), Hfq65 (Hfq65) | Krel = Kd(P)/Kd(S), Hfq102 (Hfq102)
1 | Hfq65: truncated E. coli Hfq variant lacking the CTD | a large proportion of the dsRNA remained bound to Hfq65 | about five times faster than full-length Hfq102 | roughly 100 fold | 2.3 | 
2 | Hfq102: full-length E. coli Hfq | most of the annealed dsRNA dissociated from Hfq102 |  | roughly 100 fold |  | 7.5
